Several values for one entry are separate records, joined by “and”; a condition that tells them apart may be missing. Equal values may be shown once. Read-outs that look alike come from different tables or passages of the source.
How the values were obtained:
[1] = target: T1, PilF1-889 (full-length PilF) (Thermus thermophilus, UniProt Q5SLC9); assay: ITC c-di-GMP binding to full-length PilF; conditions: 20 °C; for Kd: pH 7.5, two-site model
T1 sequence (Q5SLC9 1-889): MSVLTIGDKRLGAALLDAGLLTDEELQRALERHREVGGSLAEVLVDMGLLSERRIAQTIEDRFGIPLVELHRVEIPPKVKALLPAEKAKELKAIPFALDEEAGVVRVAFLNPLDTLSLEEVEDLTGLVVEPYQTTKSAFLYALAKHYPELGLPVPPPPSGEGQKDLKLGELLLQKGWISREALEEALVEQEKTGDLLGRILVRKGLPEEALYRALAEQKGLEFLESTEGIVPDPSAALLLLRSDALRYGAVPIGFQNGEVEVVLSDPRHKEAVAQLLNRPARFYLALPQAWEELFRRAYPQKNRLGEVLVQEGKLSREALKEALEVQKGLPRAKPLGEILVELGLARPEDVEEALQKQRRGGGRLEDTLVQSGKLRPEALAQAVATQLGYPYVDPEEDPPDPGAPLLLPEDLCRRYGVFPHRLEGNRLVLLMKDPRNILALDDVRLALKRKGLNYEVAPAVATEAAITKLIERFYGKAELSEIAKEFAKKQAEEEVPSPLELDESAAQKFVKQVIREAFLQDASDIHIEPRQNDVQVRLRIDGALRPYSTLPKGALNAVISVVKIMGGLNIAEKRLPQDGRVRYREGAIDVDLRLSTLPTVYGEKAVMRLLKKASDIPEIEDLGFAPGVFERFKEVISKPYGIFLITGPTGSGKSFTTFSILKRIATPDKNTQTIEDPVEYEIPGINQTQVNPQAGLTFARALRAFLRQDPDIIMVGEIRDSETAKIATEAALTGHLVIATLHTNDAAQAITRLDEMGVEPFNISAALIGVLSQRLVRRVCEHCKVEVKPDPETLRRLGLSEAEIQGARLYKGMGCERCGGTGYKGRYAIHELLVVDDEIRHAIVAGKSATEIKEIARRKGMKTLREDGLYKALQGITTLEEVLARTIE
Protocol: (§1) To assess the ligand-binding capabilities of the various PilF constructs, triplicates of ITC measurements were recorded for each construct. The measurements were carried out using a MicroCal ITC200 (Malvern Panalytical). All ITC experiments were conducted at 20 °C with 50 mM Tris-HCl pH 7.5, 200 mM sodium chloride, 1 mM β-mercaptoethanol as the sample buffer. All protein samples were extensively dialyzed against the sample buffer and the buffer used for dialysis was used to dilute protein and c-di-GMP samples in preparation for the ITC measurements. Each measurement was conducted using the following protocol. In total, 39.8 μl c-di-GMP were titrated to 270 μl protein in 20 separate injections in 180 s intervals with a stirring speed of 750 rpm. After an initial delay of 120 s, the first injection of 0.2 μl c-di-GMP with a duration of 0.4 s was followed by 19 injections of 2 μl with a duration of 4 s. During the measurement, the feedback mode was set to high and the reference power to 11 μcal s^−1. To optimize precision of the measurements, protein and c-di-GMP concentrations were adjusted to the binding capabilities of the respective constructs and ranged from 5 to 200 μM for protein and 50 to 2000 μM for c-di-GMP. All thermograms were processed using Origin 7.0 (OriginLab) using a one-site– or two-site–binding model dependent on the number of expected binding events.

PilF159-302 Q190E = target: T2, PilF159-302 Q190E (Thermus thermophilus, UniProt Q5SLC9, Q190E); assay: ITC binding to PilF159-302 Q190E; conditions: 20 °C
T2 sequence (Q5SLC9 159-302 Q190E): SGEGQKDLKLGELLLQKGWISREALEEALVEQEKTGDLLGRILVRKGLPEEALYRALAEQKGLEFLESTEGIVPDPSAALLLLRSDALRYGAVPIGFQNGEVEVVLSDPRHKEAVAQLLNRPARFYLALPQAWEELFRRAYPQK
Protocol: as §1

[2] = target: MshEN (N-terminal domain of ATPase MshE); set-up: method as in PMID 27578558; conditions: full length MshEN; cited from earlier work

## Nc1nc2c(ncn2[C@@H]2O[C@@H]3COP(=O)(O)O[C@H]4[C@@H](O)[C@H](n5cnc6c(=O)[nH]c(N)nc65)O[C@@H]4COP(=O)(O)O[C@H]3[C@H]2O)c(=O)[nH]1 [c-di-GMP, cyclic dimeric guanosine monophosphate]
[1]; Table S1 site 1
  ΔH, site 1: -11.763 ± 0.78 kcal/mol
  ΔS, site 1: -10.4 ± 2.7 cal/mol/deg
[1]; Table S1 site 1 (low affinity)
  N, site 1: 0.72 ± 0.10
[1]; Table S1 site 2
  ΔH, site 2: -15.683 ± 0.97 kcal/mol
  ΔS, site 2: -16.5 ± 2.2 cal/mol/deg
[1]; Table S1 site 2 (high affinity)
  N, site 2: 0.59 ± 0.03
[1]; read-out: KD, high-affinity site (KD1 in text and Fig. 1C; site 2 in Table S1)
  Kd: 10 ± 5 nM
[1]; read-out: KD, low-affinity site (KD2 in text and Fig. 1C; site 1 in Table S1)
  Kd: 324 ± 2 nM
PilF159-302 Q190E
  N: 1.11 ± 0.03
  ΔH: -3.389 ± 0.156 kcal/mol
  ΔS: 15.4 ± 0.4 cal/mol/deg
PilF159-302 Q190E; pH 7.5
  Kd: 950 ± 7 nM
[2]
  Kd: ~500 nM and 500 nM

Reference: publication PMC11731258, “The structural basis for high-affinity c-di-GMP binding to the GSPII-B domain of the traffic ATPase PilF from Thermus thermophilus” (The Journal of Biological Chemistry, 2024)
